Where two headings read alike, the source gives them in different places.
What was measured:
human (h) TRPV3 = molecular target: T1, human (h) TRPV3 (Homo sapiens, UniProt Q8NET8); experiment: Whole-cell patch clamp, human TRPV3-mediated currents; type: cell-based
T1 construct: expressed in transfected cells; host or cells: HEK293/TREx, tetracycline-induced
T1 sequence (Q8NET8 1-790): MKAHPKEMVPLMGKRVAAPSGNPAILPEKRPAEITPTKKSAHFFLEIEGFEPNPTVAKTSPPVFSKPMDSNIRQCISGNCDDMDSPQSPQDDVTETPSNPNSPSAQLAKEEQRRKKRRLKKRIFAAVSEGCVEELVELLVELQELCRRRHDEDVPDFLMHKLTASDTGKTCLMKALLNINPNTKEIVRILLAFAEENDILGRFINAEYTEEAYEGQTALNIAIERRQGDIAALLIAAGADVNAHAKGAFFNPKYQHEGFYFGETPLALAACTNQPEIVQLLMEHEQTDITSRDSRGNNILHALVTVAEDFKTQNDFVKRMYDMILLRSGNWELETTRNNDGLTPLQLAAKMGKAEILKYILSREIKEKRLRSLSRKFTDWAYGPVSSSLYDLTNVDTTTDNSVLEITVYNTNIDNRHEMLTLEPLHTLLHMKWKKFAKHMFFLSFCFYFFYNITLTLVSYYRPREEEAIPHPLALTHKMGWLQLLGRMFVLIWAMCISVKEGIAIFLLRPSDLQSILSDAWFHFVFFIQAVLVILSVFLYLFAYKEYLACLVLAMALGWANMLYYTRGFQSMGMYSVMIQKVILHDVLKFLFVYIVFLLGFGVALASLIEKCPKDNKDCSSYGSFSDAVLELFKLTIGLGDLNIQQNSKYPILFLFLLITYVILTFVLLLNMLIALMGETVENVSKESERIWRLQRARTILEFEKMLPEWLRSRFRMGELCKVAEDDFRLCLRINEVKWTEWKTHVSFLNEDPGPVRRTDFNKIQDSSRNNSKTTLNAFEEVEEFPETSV
From the text: (§1) Whole-cell patch clamp experiments permit the detection of currents through the TRPV3 channel in the cell line described above. A glass electrode is brought into contact with a single cell and the membrane is then ruptured, permitting control of the voltage of the cell membrane and measurement of currents flowing across the membrane using the amplifier attached to the electrode. A perfusion system permits control of the extracellular solution, including the addition of blockers and activators of the current. The current can be activated by heating this solution to 28° C. or warmer or by addition of 20 μM 2-APB to the solution.
(§2) TRPV3 cells were induced 20-48 hours, removed from growth plates, and replated at low density (to attain good single-cell physical separation) on glass coverslips for measurement. In some cases, cells were grown in low density overnight on glass coverslips. Patch clamp recordings were made in the whole-cell mode with a holding potential of −40 mV. Every 5 seconds, a voltage ramp was applied from −120 to +100 mV, 400 ms in duration. Currents elicited were quantified at −80 mV and +80 mV. The internal solution consisted of 140 mM cesium aspartate, 10 mM EGTA, 2.27 mM MgCl2, 1.91 mM CaCl2 and 10 mM HEPES, pH to 7.2 with KOH; with 50 nM calculated free Ca^2+. External solution was Ringer's solution described above. Upon addition of 2-APB or upon heating of the extracellular solution as described above, TRPV3 current was induced only in TRPV3-expressing cells and not in parental HEK293 TREx cells. […] Removal of the stimulus caused most of the current to go away, and inhibitor addition could still inhibit this current. […]
(§3) P1 refers to the Phase 1 current for human (h) and rat (r) TRPV3, and P2 refers to the Phase 2 current for human (h) and rat (r) TRPV3.

rat (r) TRPV3 = molecular target: T2, rat (r) TRPV3 (Rattus norvegicus, UniProt Q4QYD9); experiment: Whole-cell patch clamp, rat TRPV3-mediated currents; type: cell-based
T2 construct: expressed in transfected cells
T2 sequence (Q4QYD9 1-791): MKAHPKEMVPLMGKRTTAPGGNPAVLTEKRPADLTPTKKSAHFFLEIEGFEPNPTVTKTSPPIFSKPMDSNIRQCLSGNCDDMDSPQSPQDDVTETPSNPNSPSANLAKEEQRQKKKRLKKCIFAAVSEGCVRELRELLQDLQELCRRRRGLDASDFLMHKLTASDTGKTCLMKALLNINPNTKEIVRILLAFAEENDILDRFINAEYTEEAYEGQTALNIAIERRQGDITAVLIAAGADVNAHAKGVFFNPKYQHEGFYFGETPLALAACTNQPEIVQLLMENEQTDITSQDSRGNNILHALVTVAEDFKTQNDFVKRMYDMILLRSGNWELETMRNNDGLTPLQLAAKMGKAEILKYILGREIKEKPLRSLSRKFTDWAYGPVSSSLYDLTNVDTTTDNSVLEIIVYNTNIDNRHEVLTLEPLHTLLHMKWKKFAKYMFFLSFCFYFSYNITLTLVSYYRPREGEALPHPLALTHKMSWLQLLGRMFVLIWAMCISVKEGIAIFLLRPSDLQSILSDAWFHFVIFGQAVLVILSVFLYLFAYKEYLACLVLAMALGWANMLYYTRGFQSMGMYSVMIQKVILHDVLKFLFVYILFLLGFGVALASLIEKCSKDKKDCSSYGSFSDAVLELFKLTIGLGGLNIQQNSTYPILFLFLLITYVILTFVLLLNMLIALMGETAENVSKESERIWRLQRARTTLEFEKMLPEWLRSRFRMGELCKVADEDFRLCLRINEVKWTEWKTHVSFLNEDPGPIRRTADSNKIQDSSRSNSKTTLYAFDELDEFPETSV
From the text: as §1, §2, §3

[1] = Phase 1 inward current, read-out: P1 In (h)
[2] = Phase 2 inward current, read-out: P2 In (h)
[3] = Phase 1 outward current, read-out: P1 Out (h)
[4] = Phase 2 outward current, read-out: P2 Out (h)
[5] = Phase 1 inward current, read-out: P1 In (r)
[6] = Phase 1 outward current, read-out: P1 Out (r)
[7] = Phase 2 inward current, read-out: P2 In (r)
[8] = Phase 2 outward current, read-out: P2 Out (r)
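Note: compounds tested at concentrations up to 30 µM.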

Row | SMILES | IC50 (human (h) TRPV3; [1]) [nM] | IC50 (human (h) TRPV3; [2]) [nM] | IC50 (human (h) TRPV3; [3]) [nM] | IC50 (human (h) TRPV3; [4]) [nM] | IC50 (rat (r) TRPV3; [5]) [nM] | IC50 (rat (r) TRPV3; [6]) [nM] | IC50 (rat (r) TRPV3; [7]) [nM] | IC50 (rat (r) TRPV3; [8]) [nM]
1 | COc1cccc(/C=C/c2nc3ccccc3c(=O)n2-c2c(C)cc(OCCO)cc2C)c1O [Compound 1] | ≤ 1000 | ≤ 1000 |  |  |  |  |  | 
2 | COc1cccc(/C=C(\C)c2nc3ccccc3c(=O)n2-c2ccccc2C)c1O [Compound 2] | ≤ 5000 | ≤ 5000 |  |  |  |  |  | 
3 | COc1cccc(/C=C/c2nc3ccccc3c(=O)n2-c2c(C)cc(OCCN(C)C)cc2C)c1O [Compound 3] | ≤ 10000 | ≤ 5000 |  |  |  |  |  | 
4 | Cc1ccccc1-n1c(-c2ccoc2)nc2ccccc2c1=O [Compound 4] | ≤ 10000 | ≤ 10000 |  |  |  |  |  | 
5 | Cc1ccccc1-n1c(/C=C/c2nnn[nH]2)nc2ccccc2c1=O [Compound 5] | > 10000 | > 10000 |  |  |  |  |  | 
6 | Cc1cccc(C)c1-n1c(/C=C/c2cccc3cn[nH]c23)nc2cnccc2c1=O [Compound 10] | ≤ 10000 |  | ≤ 10000 |  |  |  |  | 
7 | Cc1cccc(C)c1-n1c(/C=C/c2cccc(OC(F)(F)F)c2O)nc2cnccc2c1=O [Compound 12] | ≤ 500 | ≤ 500 | ≤ 500 | ≤ 500 | ≤ 500 | ≤ 500 |  | 
8 | COc1ccccc1-n1c(/C=C/c2cccc(OC)c2O)nc2cnccc2c1=O [Compound 13] | ≤ 10000 |  | ≤ 10000 |  |  |  |  | 
9 | COc1cccc(/C=C/c2nc3cnccc3c(=O)n2-c2c(C)cccc2OC)c1O [Compound 14] | ≤ 500 | ≤ 500 | ≤ 500 | ≤ 500 | ≤ 500 | ≤ 500 | ≤ 500 | ≤ 1000
10 | COc1nccc(/C=C/c2nc3cnccc3c(=O)n2-c2c(C)cccc2C)c1O [Compound 15] | ≤ 500 | ≤ 500 | ≤ 500 | ≤ 500 | ≤ 500 | ≤ 500 | ≤ 500 | ≤ 500
11 | COc1cccc(/C=C/c2nc3cnccc3c(=O)n2-c2c(C)cccc2Cl)c1O [Compound 16] | ≤ 500 | ≤ 500 | ≤ 500 | ≤ 500 | ≤ 500 | ≤ 500 | ≤ 500 | ≤ 500
12 | COc1cccc(-n2c(/C=C/c3cccc(OC)c3O)nc3cnccc3c2=O)c1C [Compound 17] | ≤ 10000 | ≤ 10000 | ≤ 10000 | ≤ 10000 |  |  |  | 
13 | CCOc1cccc(/C=C/c2nc3cnccc3c(=O)n2-c2c(F)cccc2F)c1O [Compound 18] | ≤ 500 | ≤ 500 | ≤ 500 | ≤ 10000 |  |  |  | 
14 | Cc1cccc(C)c1-n1c(/C=C/c2cc(Cl)ccc2O)nc2cnccc2c1=O [Compound 20] | ≤ 5000 |  | ≤ 10000 |  |  |  |  | 
15 | Cc1cccc(C)c1-n1c(/C=C/c2cc(OC(F)(F)F)ccc2O)nc2cnccc2c1=O [Compound 21] | ≤ 10000 |  | ≤ 10000 |  |  |  |  | 
16 | Cc1cccc(C)c1-n1c(/C=C/c2cc(Cl)cnc2O)nc2cnccc2c1=O [Compound 22] | ≤ 10000 |  | ≤ 10000 |  |  |  |  | 

Row | SMILES | IC50 (human (h) TRPV3; [1]) [nM] | IC50 (human (h) TRPV3; [2]) [nM] | IC50 (human (h) TRPV3; [3]) [nM] | IC50 (human (h) TRPV3; [4]) [nM] | IC50 (rat (r) TRPV3; [5]) [nM] | IC50 (rat (r) TRPV3; [6]) [nM] | IC50 (rat (r) TRPV3; [7]) [nM] | IC50 (rat (r) TRPV3; [8]) [nM]
17 | Cc1ccc(O)c(/C=C/c2nc3cnccc3c(=O)n2-c2c(C)cccc2C)n1 [Compound 23] | ≤ 10000 |  | ≤ 10000 |  |  |  |  | 
18 | COc1cccc(/C=C/c2nc3cnccc3c(=O)n2-c2c(C)cccc2C)n1 [Compound 24] | ≤ 10000 |  | ≤ 10000 |  |  |  |  | 
19 | COc1cccc(/C=C/c2nc3cnccc3c(=O)n2-c2ccccc2C#N)c1O [Compound 25] | ≤ 10000 |  | ≤ 5000 |  |  |  |  | 
20 | COc1cc(/C=C/c2nc3cnccc3c(=O)n2-c2c(C)cccc2C)ccn1 [Compound 26] | ≤ 10000 |  | ≤ 5000 |  |  |  |  | 
21 | Cc1cccc(C)c1-n1c(/C=C/c2cnccc2O)nc2cnccc2c1=O [Compound 29] | ≤ 10000 |  | ≤ 10000 |  |  |  |  | 
22 | CCOc1cccc(C=Cc2nc3cnccc3c(=O)n2-c2ccccc2C)c1O [Compound 31] | ≤ 500 | ≤ 500 | ≤ 500 | ≤ 500 | ≤ 500 | ≤ 500 |  | 
23 | COc1cccc(/C=C/c2nc3ccccc3c(=O)n2-c2c(C)ccnc2C)c1O [Compound 32] | ≤ 500 | ≤ 500 | ≤ 500 | ≤ 500 | ≤ 1000 | ≤ 1000 | ≤ 500 | ≤ 1000
24 | COc1cccc(/C=C/c2nc3ccccc3c(=O)n2-c2c(C)cncc2C)c1O [Compound 33] | ≤ 500 | ≤ 500 | ≤ 500 | ≤ 5000 | ≤ 500 | ≤ 500 | ≤ 500 | ≤ 500
25 | COc1ccnc(/C=C/c2nc3ccccc3c(=O)n2-c2c(C)cccc2C)c1O [Compound 39] | ≤ 10000 | ≤ 10000 | ≤ 10000 | ≤ 10000 |  |  |  | 
26 | CCOc1nccc(/C=C/c2nc3ccccc3c(=O)n2-c2ccccc2C)c1O [Compound 43] | ≤ 500 | ≤ 500 | ≤ 500 | ≤ 500 | ≤ 500 | ≤ 500 | ≤ 500 | ≤ 500
27 | COc1cccc(NC(=O)Nc2nc3ccccc3c(=O)n2-c2c(C)cccc2C)c1O [Compound 46] | ≤ 5000 |  | ≤ 5000 |  |  |  |  | 
28 | COc1cccc(/C=C/c2nc3ccccc3c(=O)n2-c2c(C)cccc2OCCO)c1O [Compound 48] | ≤ 500 |  | ≤ 1000 | ≤ 1000 |  |  |  | 
29 | Cc1cccc(C)c1-n1c(/C=C/c2cccc(OC(C)C)c2O)nc2ccccc2c1=O [Compound 51] | ≤ 500 | ≤ 500 | ≤ 500 | ≤ 500 | ≤ 500 | ≤ 500 |  | 
30 | COc1ccccc1-n1c(/C=C/c2cccc(OC)c2O)nc2ccccc2c1=O [Compound 52] | ≤ 500 | ≤ 500 | ≤ 500 | ≤ 500 |  |  |  | 
31 | COc1cccc(C=Cc2nc3ccccc3c(=O)n2-c2c(C)cccc2C)c1OP(=O)(O)O [Compound 53] | ≤ 500 | ≤ 500 | ≤ 500 | ≤ 500 |  |  |  | 
32 | COc1cccc(-n2c(/C=C/c3cccc(OC)c3O)nc3ccccc3c2=O)c1 [Compound 54] | ≤ 500 | ≤ 500 | ≤ 500 | ≤ 500 |  |  |  | 
